The nature of this series: LCM and related compounds (RC) in embryos and mothers' serum by high-resolution MS/MSe. It counts as in vivo, mice. The settings on record: for presence in the serum of mothers: dams given 10-120 mg/kg LCM. As for the experimental part:
Samples were extracted as described previously[25] with slight modifications. Briefly, embryos were rinsed with cold saline and ultrapure water, and their wet-weight was determined. […] The mixture was vortexed vigorously for 3 min and centrifuged at 13,000 g for 5 min. The supernatant was transferred to a new Eppendorf tube and evaporated to dryness in a stream of nitrogen gas. The residue was reconstituted with 50 µL of LC-MS Ultrapure water, vortexed for 20 s and centrifuged at 13,000 g for 5 min. The supernatant was transferred to a conic micro insert to be injected onto the UHPLC system.
MS spectra data were collected between m/z 50 and 1000, and MS/MS spectra were registered between 50-300 Da. […] The MS^e procedure was used to identify metabolites in positive ionization mode. UPLC–QTOF-MS^e detection collects data using two scan functions, providing fragment ion information without precursor ion selection. A characteristic m/z in the low energy function allows identification through the fragment ions obtained with the high collision energy function. Two functions were acquired at different collision energies: a low energy function obtained at 2 eV; and a high-energy function obtained using a collision energy ramp ranging from 15 to 30 eV and spectra data collected between m/z 50 and 800. The data station operating the software was a MassLynx version 4.1, while metabolites were identified by means of Metabolynx XS (Waters, Micromass, Manchester, UK).
In this work the following routes were selected for these searches: phase I metabolites Reduction (+H2), Hydroxylation (O), Hydration (+H2O), 2xHydroxylation (+O2), Deacetylation (-C2H2O) and Demethylation (-CH2); and phase II metabolites Acetylation (+C2H2O) and Glucuronide (+C6H8O6).

Results on four compounds are retold here after paper PMC7203245, “Lacosamide intake during pregnancy increases the incidence of foetal malformations and symptoms associated with schizophrenia in the offspring of mice” (Scientific Reports, 2020).

Turning to `NCc1ccccc1` [RC 1], the “presence in the serum of mothers” value is given as “detected in the serum of all mothers”. Further, the “Embryos in which the LCM compound is present” value (Maternal Dose 10 mg/kg) is “Embryo1 and 2”. Further, for the setting “embryo from a dam treated with 10 mg/kg LCM”, the “number of embryos in which detected” value came out at 1.
On to `CC(=O)N[C@H](CO)C(=O)NCc1ccccc1` [RC 2, O-Demethyl LCM], for which the “presence in the serum of mothers” value was “detected in the serum of all mothers”. Also, where the note is “Maternal Dose 10 mg/kg”, the “Embryos in which the LCM compound is present” value is “Embryo1 and 2”. In addition, the “Embryos in which the LCM compound is present” value (Maternal Dose 80 mg/kg) was “Embryo 5 and 6”. Also, under “embryos from dams treated with 10 mg/kg and 80 mg/kg LCM”, the “number of embryos in which detected” value was determined as 2.
For the compound `COC[C@@H](N)C(=O)NCc1ccccc1` [deacetylacosamide], the “presence in samples from mothers” value (mothers who received 10 mg/kg LCM) is “contained”.
In the case of `CC(=O)N[C@H](CO)C(=O)NCc1ccccc1` [desmethylacosamide], the “presence in samples from dams” value (dams that received 120 mg/kg LCM) is listed as “some samples from the corresponding dams contained”.
